Measured values reported in patent US20190358181A1, “METHODS FOR AUTISM SPECTRUM DISORDER PHARMACOTHERAPY” (priority 2017, published 2019).

System: 610 metabolites from 63 biochemical pathways
Test: Targeted broad-spectrum plasma metabolomic analysis (LC-MS/MS), paired pre-infusion vs post-infusion (2-days and 6-weeks)
Type: in vivo, human
Details: plasma, 2-days after infusion vs pre-infusion
Method: Targeted, broad-spectrum, plasma metabolomic analysis of 610 metabolites from 63 biochemical pathways was performed by high performance liquid chromatography and tandem mass spectrometry (LC-MS/MS) on the samples collected from patients in Example 1. Venous blood was collected between the hours of 8 am and 5 pm, at least 3 hours after the last meal, into lithium-heparin vacutainer tubes (BD #367884). Plasma was separated by centrifugation at 900 g×10 minutes at room temperature within one hour of collection. The resulting fresh lithium-heparin plasma was transferred to labeled 1.2 ml or 2.0 ml externally threaded cryotubes with a minimum headspace air gap for storage at −80° C. for analysis. Samples were analyzed on an AB SCIEX QTRAP 5500 triple quadrupole mass spectrometer equipped with a Turbo V electrospray ionization (ESI) source, Shimadzu LC-20A UHPLC system, and a PAL CTC autosampler. Typically, 90 μl of plasma was thawed on ice and transferred to a 1.7 ml Eppendorf tube. Five (5.0) μl of a cocktail containing 25-35 commercial stable isotope internal standards, and 5.0 μl of 57 stable isotope internal standards that were custom-synthesized in E. coli NCM3722, Caenorhabditis elegans N2, and Komagataella phaffii (ATCC 76273; formerly known as Pichia pastoris) by metabolic labeling with 13C-glucose and 13C-bicarbonate, were added, mixed, and incubated for 10 min at 20° C. to permit small molecules and vitamins in the internal standards to associate with plasma binding proteins. Macromolecules (protein, DNA, RNA, glycans, etc.) were precipitated by extraction with 4 volumes (400 μl) of cold (−20° C.), acetonitrile:methanol (50:50) (LCMS grade, Cat #LC015-2.5 and GC230-4, Burdick & Jackson, Honeywell), vortexed vigorously, and incubated on crushed ice for 10 min, then removed by centrifugation at 16,000 g×10 min at 4° C. The supernatants containing the extracted metabolites and internal standards in the resulting 40:40:20 solvent mix of acetonitrile:methanol:water were transferred to labeled cryotubes and stored at −80° C. for LCMS/MS analysis.
LC-MS/MS analysis was performed by scheduled multiple reaction monitoring (sMRM) under Analyst v1.6.2 software control in both negative and positive mode with rapid polarity switching (50 ms). Nitrogen was used for curtain gas (set to 30), collision gas (set to high), ion source gas 1 and 2 (set to 35). The source temperature was 500° C. Spray voltage was set to −4500 V in negative mode and 5500 V in positive mode. The values for Q1 and Q3 mass-to-charge ratios (m/z), declustering potential (DP), entrance potential (EP), collision energy (CE), and collision cell exit potential (CXP) were determined and optimized for each MRM for each metabolite. Ten microliters of extract was injected by PAL CTC autosampler via a 10 μl stainless steel loop into a 250 mm×2.0 mm, 4 μm polymer based NH2 HPLC column (Asahipak NH2P-40 2E, Showa Denko America, Inc., NY) held at 25° C. for chromatographic separation. The mobile phase was solvent A: 95% water with 20 mM (NH4)2CO3 (Sigma, Fluka Cat #74415-250G-F), 5% acetonitrile, and 38 mM NH4OH (Sigma, Fluka Cat #17837-100ML), final pH 9.75; solvent B: 100% acetonitrile. Separation was achieved using the following gradient: 0-3.5 min: 95% B, 3.6-8 min: 85% B, 8.1-13 min: 75% B, 13.5-35 min: 0% B, 36-46 min: 95% B, 46.1 min: end. The flow rate was 200 μl/min. Pump pressures ranged from 920-2600 psi over the course of the gradient. All the samples were kept at 4° C. during analysis. The chromatographic peaks were identified using MultiQuant (v3.0, Sciex), confirmed by manual inspection, and the peak areas integrated. […]

[1] = SAM, SAH, Methionine, Cysteine, Glutathione Metabolism
[2] = Taurine, Hypotaurine Metabolism
[3] = Tryptophan, Kynurenine, Serotonin, Melatonin Metabolism
[4] = Tyrosine and Phenylalanine Metabolism
[5] = Vitamin D (Calciferol) Metabolism

Cc1ccc(C(=O)Nc2ccc(S(=O)(=O)O)c3cc(S(=O)(=O)O)cc(S(=O)(=O)O)c23)cc1NC(=O)c1cccc(NC(=O)Nc2cccc(C(=O)Nc3cc(C(=O)Nc4ccc(S(=O)(=O)O)c5cc(S(=O)(=O)O)cc(S(=O)(=O)O)c45)ccc3C)c2)c1 [Suramin, suramin]
Z Score, Azelaic acid (Nitric Oxide, Superoxide, Peroxide Metabolism): −2.024
Linear Ratio, LysoPC(16:0) (Phospholipid Metabolism): 0.777
Linear Ratio, PA(16:0/16:1) (Phospholipid Metabolism): 0.793
Linear Ratio, PG(16:0/16:0) (Phospholipid Metabolism): 0.549
VIP Score, LysoPC(16:0) (Phospholipid Metabolism): 2.067
VIP Score, PA(16:0/16:1) (Phospholipid Metabolism): 1.998
VIP Score, PG(16:0/16:0) (Phospholipid Metabolism): 1.664
Z Abs, LysoPC(16:0) (Phospholipid Metabolism): 0.908
Z Abs, PA(16:0/16:1) (Phospholipid Metabolism): 0.813
Z Abs, PG(16:0/16:0) (Phospholipid Metabolism): 0.667
Z Score, LysoPC(16:0) (Phospholipid Metabolism): −0.908
Z Score, PA(16:0/16:1) (Phospholipid Metabolism): −0.813
Z Score, PG(16:0/16:0) (Phospholipid Metabolism): −0.667
Linear Ratio, 1-Methyladenine (Purine Metabolism): 1.631
Linear Ratio, AICAR (Purine Metabolism): 1.309
Linear Ratio, Allantoin (Purine Metabolism): 1.663
Linear Ratio, Cyclic adenosine monophosphate (Purine Metabolism): 0.855
Linear Ratio, Deoxyguanosine diphosphate (Purine Metabolism): 0.889
Linear Ratio, Guanosine (Purine Metabolism): 0.702
Linear Ratio, Hypoxanthine (Purine Metabolism): 0.745
Linear Ratio, Purine (Purine Metabolism): 1.203
Linear Ratio, Xanthosine (Purine Metabolism): 0.821
VIP Score, 1-Methyladenine (Purine Metabolism): 2.033
VIP Score, AICAR (Purine Metabolism): 1.787
VIP Score, Allantoin (Purine Metabolism): 2.195
VIP Score, Cyclic adenosine monophosphate (Purine Metabolism): 1.949
VIP Score, Deoxyguanosine diphosphate (Purine Metabolism): 2.264
VIP Score, Guanosine (Purine Metabolism): 1.519
VIP Score, Hypoxanthine (Purine Metabolism): 2.267
VIP Score, Purine (Purine Metabolism): 1.847
VIP Score, Xanthosine (Purine Metabolism): 1.764
Z Abs, 1-Methyladenine (Purine Metabolism): 1.337
Z Abs, AICAR (Purine Metabolism): 1.310
Z Abs, Allantoin (Purine Metabolism): 0.926
Z Abs, Cyclic adenosine monophosphate (Purine Metabolism): 0.681
Z Abs, Deoxyguanosine diphosphate (Purine Metabolism): 1.276
Z Abs, Guanosine (Purine Metabolism): 0.766
Z Abs, Hypoxanthine (Purine Metabolism): 1.000
Z Abs, Purine (Purine Metabolism): 1.137
Z Abs, Xanthosine (Purine Metabolism): 1.316
Z Score, 1-Methyladenine (Purine Metabolism): 1.337
Z Score, AICAR (Purine Metabolism): 1.310
Z Score, Allantoin (Purine Metabolism): 0.926
Z Score, Cyclic adenosine monophosphate (Purine Metabolism): −0.681
Z Score, Deoxyguanosine diphosphate (Purine Metabolism): −1.276
Z Score, Guanosine (Purine Metabolism): −0.766
Z Score, Hypoxanthine (Purine Metabolism): −1.000
Z Score, Purine (Purine Metabolism): 1.137
Z Score, Xanthosine (Purine Metabolism): −1.316
Linear Ratio, Cytosine (Pyrimidine Metabolism): 1.689
Linear Ratio, Orotic acid (Pyrimidine Metabolism): 0.670
VIP Score, Cytosine (Pyrimidine Metabolism): 2.556
VIP Score, Orotic acid (Pyrimidine Metabolism): 1.787
Z Abs, Cytosine (Pyrimidine Metabolism): 2.055
Z Abs, Orotic acid (Pyrimidine Metabolism): 0.612
Z Score, Cytosine (Pyrimidine Metabolism): 2.055
Z Score, Orotic acid (Pyrimidine Metabolism): −0.612
Linear Ratio, Cysteamine [1]: 1.107
Linear Ratio, Cysteine-S-sulfate [1]: 0.869
Linear Ratio, Methionine sulfoxide [1]: 1.331
VIP Score, Cysteamine [1]: 2.075
VIP Score, Cysteine-S-sulfate [1]: 1.682
VIP Score, Methionine sulfoxide [1]: 1.817
Z Abs, Cysteamine [1]: 1.398
Z Abs, Cysteine-S-sulfate [1]: 0.644
Z Abs, Methionine sulfoxide [1]: 1.738
Z Score, Cysteamine [1]: 1.398
Z Score, Cysteine-S-sulfate [1]: −0.644
Z Score, Methionine sulfoxide [1]: 1.738
Linear Ratio, SM(d18:1/20:0) (Sphingomyelin Metabolism): 0.712
Linear Ratio, SM(d18:1/20:1) (Sphingomyelin Metabolism): 0.745
VIP Score, SM(d18:1/20:0) (Sphingomyelin Metabolism): 1.576
VIP Score, SM(d18:1/20:1) (Sphingomyelin Metabolism): 2.033
Z Abs, SM(d18:1/20:0) (Sphingomyelin Metabolism): 0.770
Z Abs, SM(d18:1/20:1) (Sphingomyelin Metabolism): 1.250
Z Score, SM(d18:1/20:0) (Sphingomyelin Metabolism): −0.770
Z Score, SM(d18:1/20:1) (Sphingomyelin Metabolism): −1.250
Linear Ratio, Taurine [2]: 0.786
VIP Score, Taurine [2]: 2.042
Z Abs, Taurine [2]: 0.942
Z Score, Taurine [2]: −0.942
Linear Ratio, L-Kynurenine [3]: 1.099
VIP Score, L-Kynurenine [3]: 1.617
Z Abs, L-Kynurenine [3]: 0.625
Z Score, L-Kynurenine [3]: 0.625
Linear Ratio, L-Phenylalanine [4]: 1.164
VIP Score, L-Phenylalanine [4]: 1.839
Z Abs, L-Phenylalanine [4]: 0.957
Z Score, L-Phenylalanine [4]: 0.957
Linear Ratio, 1,25-Dihydroxyvitamin D3 [5]: 0.273
VIP Score, 1,25-Dihydroxyvitamin D3 [5]: 3.134
Z Abs, 1,25-Dihydroxyvitamin D3 [5]: 1.447
Z Score, 1,25-Dihydroxyvitamin D3 [5]: −1.447
